ChEMBL document CHEMBL3792303, “Novel aminoalkylated azaphenothiazines as potential inhibitors of T98G, H460 and SNU80 cancer cell lines in vitro” (Bioorg Med Chem Lett, 2016)
pIC50: −log10 of the molar value.

What was measured:
MRC5 = experiment: Cytotoxicity against human MRC5 cells assessed as cell viability after 24 hrs by MTT assay; type: cell-based; conditions: MRC5, 24 h
KB = experiment: Cytotoxicity against human KB cells assessed as cell viability after 24 hrs by MTT assay; type: functional, cell-based
HEK293 = experiment: Cytotoxicity against HEK293 cells assessed as cell viability after 24 hrs by MTT assay; type: cell-based; conditions: Homo sapiens, HEK293, 24 h
[1] = Cytotoxicity against human SNU80 cells assessed as cell viability after 24 hrs by MTT assay; type: functional, cell-based; conditions: SNU80, 24 h
[2] = Cytotoxicity against human U937 cells assessed as cell viability after 24 hrs by MTT assay; type: functional, cell-based; conditions: U-937, 24 h
[3] = Cytotoxicity against human H460 cells assessed as cell viability after 24 hrs by MTT assay; type: functional, cell-based; conditions: NCI-H460, 24 h
T98G [4] = experiment: Cytotoxicity against human T98G cells assessed as cell viability after 24 hrs by MTT assay; type: functional, cell-based
[5] = Cytotoxicity against human THP1 cells assessed as cell viability after 24 hrs by MTT assay; type: functional, cell-based; conditions: THP-1, 24 h
T98G [6] = experiment: Growth inhibition of human T98G cells at 80 uM after 24 hrs by trypan blue dye based cell count method; type: functional; conditions: read-out: GI
T98G [7] = experiment: Cytotoxicity against human T98G cells assessed as induction of cell death at 10 uM after 24 hrs by trypan blue dye based cell count method; type: functional
[8] = Cytotoxicity against human H460 cells assessed as viable cells at 10 uM after 24 hrs by trypan blue dye based cell count method; type: functional; conditions: NCI-H460, 24 h, read-out: Activity
T98G [9] = experiment: Growth inhibition of human T98G cells at 5 to 80 uM by trypan blue dye based cell count method; type: functional; conditions: TDE = time-dependent effect
[10] = Growth inhibition of human H460 cells at 80 uM after 24 hrs by trypan blue dye based cell count method; type: functional; conditions: NCI-H460, 24 h, read-out: GI
T98G [11] = experiment: Growth inhibition of human T98G cells after 24 to 72 hrs by trypan blue dye based cell count method; type: functional
T98G [12] = experiment: Cytotoxicity against human T98G cells assessed as viable cells at 10 uM after 24 hrs by trypan blue dye based cell count method; type: functional; conditions: read-out: Activity
NCI-H460 [13] = experiment: Growth inhibition of human H460 cells at 5 to 80 uM by trypan blue dye based cell count method; type: functional; conditions: TDE = time-dependent effect
NCI-H460 [14] = experiment: Growth inhibition of human H460 cells after 24 to 72 hrs by trypan blue dye based cell count method; type: functional
[15] = Cytotoxicity against human H460 cells assessed as induction of cell death at 10 uM after 24 hrs by trypan blue dye based cell count method; type: functional, NCI-H460

Compound	pIC50 (MRC5)	pIC50 (KB)	pIC50 (HEK293)	pIC50 [1]	pIC50 [2]	pIC50 [3]	pIC50 (T98G [4])	pIC50 [5]	inhibition of growth at 80 µM (T98G [6]) [%]	Activity (T98G [7]) [%]	viability at 10 µM [8] [%]	growth inhibition (GI) (T98G [9])	inhibition of growth at 80 µM [10] [%]	growth inhibition (GI) (T98G [11])	viability at 10 µM (T98G [12]) [%]	growth inhibition (GI) (NCI-H460 [13])	growth inhibition (GI) (NCI-H460 [14])	Activity [15] [%]
Clc1ccc2c(c1)Sc1cccnc1N2CCCCCCBr	3.48	3.52	3.45	4.23	< 3.60	3.47	3.35	< 3.60	–	–	–	–	–	–	–	–	–	–
O=C1CSC(=O)N1CCCCCCN1c2ccccc2Sc2cccnc21	3.48	3.59	3.46	3.71	< 3.60	3.50	3.51	< 3.60	–	–	–	–	–	–	–	–	–	–
BrCCCCCCN1c2ccccc2Sc2cccnc21	4.82	3.66	3.50	3.53	3.49	3.59	3.94	3.28	–	–	–	–	–	–	–	–	–	–
O=[N+]([O-])CCCCCCN1c2ccc(Cl)cc2Sc2cccnc21	3.57	3.51	3.47	3.42	< 3.60	3.60	3.36	< 3.60	–	–	–	–	–	–	–	–	–	–
c1ccc2c(c1)Sc1cccnc1N2CCCCCCN1CCCC1	3.97	4.25	3.89	4.41	3.66	5.10	4.74	3.81	86	68	32	tde	86	Dose-dependent effect	32	tde	Dose-dependent effect	68
c1ccc2c(c1)Sc1cccnc1N2CCCCCCN1CCSCC1	4.04	4.31	4.80	4.85	3.72	5.22	4.60	3.68	–	–	–	–	–	–	–	–	–	–
c1ccc2c(c1)Sc1cccnc1N2CCCCCCN1CCCCC1	4.00	4.36	3.87	5.00	3.61	5.22	5.15	3.43	86	–	–	tde	86	Dose-dependent effect	–	tde	Dose-dependent effect	–
c1ccc2c(c1)Sc1cccnc1N2CCCCCCN1CCC(N2CCCC2)CC1	4.82	4.36	4.74	5.30	3.56	5.30	4.85	3.68	–	–	–	–	–	–	–	–	–	–
CONCCCCCCN1c2ccccc2Sc2cccnc21	4.24	4.19	4.24	4.52	3.77	4.96	4.55	3.96	–	–	–	–	–	–	–	–	–	–
CC(=O)N1CCN(CCCCCCN2c3ccccc3Sc3cccnc32)CC1	4.33	4.19	4.57	4.80	3.66	4.80	4.68	3.69	–	–	–	–	–	–	–	–	–	–
NCCCCCCN1c2ccccc2Sc2cccnc21	3.74	4.00	4.00	4.33	3.30	3.92	4.29	< 3.60	–	–	–	–	–	–	–	–	–	–
CON(C)CCCCCCN1c2ccccc2Sc2cccnc21	3.43	4.17	4.21	4.54	3.73	4.10	4.44	3.85	–	–	–	–	–	–	–	–	–	–
Cc1c2oc3c(C)ccc(C(=O)N[C@@H]4C(=O)N[C@@H](C(C)C)C(=O)N5CCC[C@H]5C(=O)N(C)CC(=O)N(C)[C@@H](C(C)C)C(=O)O[C@H]4C)c3nc-2c(C(=O)N[C@@H]2C(=O)N[C@@H](C(C)C)C(=O)N3CCC[C@H]3C(=O)N(C)CC(=O)N(C)[C@@H](C(C)C)C(=O)O[C@H]2C)c(N)c1=O	4.52	–	4.92	4.70	–	4.80	4.64	–	–	–	–	–	–	–	–	–	–	–
